Legend:
Test in all cases: combination Emax (second highest fraction inhibited in the dose matrix, 72 h); higher = more inhibition; extreme values may be limits of the assay
[1] = test system: Ca9-22 (Head and Neck Carcinoma)
Summary of the method: (§1)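 Cell lines grown in DMEM/F12 or RPMI with 10% FBS were plated in 1536-well plates and held 24 hours at 37°C, 5% CO2 before 72 hours of exposure to two-drug dose matrices, with DMSO typically at 0.2%. CellTiter-Glo 2.0 luminescence gave viability, which was converted to inhibition. Vehicle wells were set to 0 and blank wells to 1. Combination Emax is the second-highest inhibition in the matrix, and Bliss excess is the observed combination effect minus the expected EA + EB − EA·EB, where EA and EB are the single-agent effects.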

[2] = test system: D-263MG (Glioblastoma)
Summary of the method: as §1

[3] = test system: KARPAS-299 (T-Cell Non-Hodgkin's Lymphoma)
Summary of the method: as §1

[4] = test system: RF-48 (B-Cell Non-Hodgkin's Lymphoma)
Summary of the method: as §1

[5] = test system: YH-13 (Glioblastoma)
Summary of the method: as §1

[6] = test system: EFM-19 (Breast Carcinoma)
Summary of the method: as §1

[7] = test system: EoL-1-cell (Acute Myeloid Leukemia)
Summary of the method: as §1

[8] = test system: PANC-04-03 (Pancreatic Carcinoma)
Summary of the method: as §1

[9] = test system: NB69 (Neuroblastoma)
Summary of the method: as §1

[10] = test system: EW-24 (Ewing's Sarcoma)
Summary of the method: as §1

[11] = test system: BT-549 (Breast Carcinoma)
Summary of the method: as §1

[12] = test system: MIA-PaCa-2 (Pancreatic Carcinoma)
Summary of the method: as §1

[13] = test system: SW13 (Other Solid Carcinomas)
Summary of the method: as §1

SMILES	combination Emax [1]	combination Emax [2]	combination Emax [3]	combination Emax [4]	combination Emax [5]	combination Emax [6]	combination Emax [7]	combination Emax [8]	combination Emax [9]	combination Emax [10]	combination Emax [11]	combination Emax [12]	combination Emax [13]
Cc1c2c(nn1C)CSCc1cc(n(C)n1)CSc1cc(c3ccccc3c1)OCCCc1c(C(=O)O)n(C)c3c-2c(Cl)ccc13 [AZD5991] + CS(=O)(=O)CCNCc1ccc(-c2ccc3ncnc(Nc4ccc(OCc5cccc(F)c5)c(Cl)c4)c3c2)o1 [Lapatinib] (first compound max 1 µM, 7x7, partner max 10 µM)	0.933	0.458	0.952	0.244	0.186	0.364	1	0.343	0.902	0.32	0.412	0.496	0.973
O=C(c1cc(Cc2n[nH]c(=O)c3ccccc23)ccc1F)N1CCN(C(=O)C2CC2)CC1 [Olaparib] + CC1(C)CCC(CN2CCN(c3ccc(C(=O)NS(=O)(=O)c4ccc(NCC5CCOCC5)c([N+](=O)[O-])c4)c(Oc4cnc5[nH]ccc5c4)c3)CC2)=C(c2ccc(Cl)cc2)C1 [Venetoclax] (first compound max 10 µM, 7x7, partner max 1 µM)	0.229	0.0634	0.306	0.606	0.195	0.194	0.99	0.176	0.643	0.195	0.18	0.209	0.213
O=C(c1cc(Cc2n[nH]c(=O)c3ccccc23)ccc1F)N1CCN(C(=O)C2CC2)CC1 [Olaparib] + COc1nnc2ccc(N3CCC(c4ccc(OCCN5CCN(C)C(=O)[C@H]5C)cc4)CC3)nn12 [AZD5153] (first compound max 10 µM, 7x7, partner max 1 µM)	0.625	0.343	0.774	0.354	0.556	0.367	0.97	0.52	0.959	0.639	0.462	0.852	0.309
C[C@@H](Nc1cc(F)cc(F)c1)c1cc(C(=O)N(C)C)cc2c(=O)cc(N3CCOCC3)oc12 [AZD8186] + CC(=O)c1c(C)c2cnc(Nc3ccc(N4CCNCC4)cn3)nc2n(C2CCCC2)c1=O [Palbociclib] (first compound max 10 µM, 7x7, partner max 10 µM)	0.368	0.355	0.345	0.4	0.692	0.449	0.551	0.344	0.927	0.563	0.392	0.471	0.316
C[C@@H](Oc1cc(-c2cnn(C3CCNCC3)c2)cnc1N)c1c(Cl)ccc(F)c1Cl [Crizotinib] + Cn1cnc2c(F)c(Nc3ccc(Br)cc3Cl)c(C(=O)NOCCO)cc21 [Selumetinib] (first compound max 10 µM, 7x7, partner max 10 µM)	0.542	0.308	0.895	0.306	0.446	0.224	1	0.631	1	0.545	0.38	0.763	0.522
CN(CCO)CC[C@H](CSc1ccccc1)Nc1ccc(S(=O)(=O)NC(=O)c2ccc(N3CCC([C@@H](O)c4ccccc4-c4ccc(Cl)cc4)CC3)cc2)cc1S(=O)(=O)C(F)(F)F [AZD4320] + CS(=O)(=O)CCNCc1ccc(-c2ccc3ncnc(Nc4ccc(OCc5cccc(F)c5)c(Cl)c4)c3c2)o1 [Lapatinib] (first compound max 1 µM, 7x7, partner max 10 µM)	0.974	0.154	0.204	0.874	0.603	0.846	1	0.313	0.983	0.931	0.633	0.832	0.804
Cc1nc(-c2cn3c(n2)-c2ccc(-c4cnn(C(C)(C)C(N)=O)c4)cc2OCC3)n(C(C)C)n1 [Taselisib] + O=C(Nc1ccc2[nH]nc(-c3ccncc3)c2c1)[C@@H]1CCN(CC(=O)N2CCN(c3ccc(-c4ncccn4)cc3)CC2)C1 [SCH772984] (first compound max 10 µM, 7x7, partner max 5 µM)	0.938	0.892	0.413	0.36	0.932	0.693	1	0.905	0.997	0.602	0.501	0.797	0.894
C=CCn1c(=O)c2cnc(Nc3ccc(N4CCN(C)CC4)cc3)nc2n1-c1cccc(C(C)(C)O)n1 [AZD1775] + CCc1c2c(nc3ccc(O)cc13)-c1cc3c(c(=O)n1C2)COC(=O)[C@]3(O)CC [SN-38] (first compound max 1 µM, partner max 0.3 µM)	0.965	0.641	0.971	0.783	0.741	0.743	1	0.617	0.997	0.782	0.857	0.969	0.964
CC1(C)CCC(CN2CCN(c3ccc(C(=O)NS(=O)(=O)c4ccc(NCC5CCOCC5)c([N+](=O)[O-])c4)c(Oc4cnc5[nH]ccc5c4)c3)CC2)=C(c2ccc(Cl)cc2)C1 [Venetoclax] + CS(=O)(=O)CCNCc1ccc(-c2ccc3ncnc(Nc4ccc(OCc5cccc(F)c5)c(Cl)c4)c3c2)o1 [Lapatinib] (first compound max 1 µM, 7x7, partner max 10 µM)	0.777	0.108	0.337	0.34	0.0901	0.207	0.986	0.291	0.598	0.245	0.249	0.272	0.549
CS(=O)(=O)CCNCc1ccc(-c2ccc3ncnc(Nc4ccc(OCc5cccc(F)c5)c(Cl)c4)c3c2)o1 [Lapatinib] + Cn1cnc2c(F)c(Nc3ccc(Br)cc3Cl)c(C(=O)NOCCO)cc21 [Selumetinib] (first compound max 10 µM, 7x7, partner max 10 µM)	0.845	0.259	0.446	0.275	0.209	0.289	0.832	0.77	0.916	0.222	0.32	0.57	0.687
Cc1c2c(nn1C)CSCc1cc(n(C)n1)CSc1cc(c3ccccc3c1)OCCCc1c(C(=O)O)n(C)c3c-2c(Cl)ccc13 [AZD5991] + CC(=O)O[C@H]1C(=O)[C@@]2(C)[C@H]([C@H](OC(=O)c3ccccc3)[C@]3(O)C[C@H](OC(=O)[C@H](O)[C@@H](NC(=O)c4ccccc4)c4ccccc4)C(C)=C1C3(C)C)[C@]1(OC(C)=O)CO[C@@H]1C[C@@H]2O [Paclitaxel] (first compound max 1 µM, 7x7, partner max 3 µM)	0.963	1	1	0.807	0.994	0.931	1	0.52	1	0.734	0.864	0.807	1
C=CCn1c(=O)c2cnc(Nc3ccc(N4CCN(C)CC4)cc3)nc2n1-c1cccc(C(C)(C)O)n1 [AZD1775] + Nc1ccn([C@@H]2O[C@H](CO)[C@@H](O)C2(F)F)c(=O)n1 [Gemcitabine] (first compound max 1 µM, partner max 0.3 µM)	0.834	0.622	0.976	0.727	0.662	0.614	1	0.526	1	0.658	0.827	0.947	0.928
O=C(c1cc(Cc2n[nH]c(=O)c3ccccc23)ccc1F)N1CCN(C(=O)C2CC2)CC1 [Olaparib] + CN(CC[C@H](CSC1=CC=CC=C1)NC2=C(C=C(C=C2)S(=O)(=O)NC(=O)C3=CC=C(C=C3)N4CCC(CC4)[C@H](C5=CC=CC=C5C6=CC=C(C=C6)Cl)O)S(=O)(=O)C(F)(F)F)CCO [AZD4320] (first compound max 10 µM, 7x7, partner max 1 µM)	0.349	0.0474	0.432	0.926	0.401	0.428	1	0.121	0.943	0.606	0.217	0.184	0.184
C[C@@H]1COCCN1c1cc(C2([S@](C)(=N)=O)CC2)nc(-c2ccnc3[nH]ccc23)n1 [AZD6738] + Nc1ccn([C@@H]2O[C@H](CO)[C@@H](O)C2(F)F)c(=O)n1 [Gemcitabine] (first compound max 10 µM, 7x7, partner max 0.3 µM)	0.923	0.738	0.997	0.77	0.865	0.795	1	0.627	1	0.8	0.797	0.947	0.932
C[C@@H](Nc1cc(F)cc(F)c1)c1cc(C(=O)N(C)C)cc2c(=O)cc(N3CCOCC3)oc12 [AZD8186] + C1CN(CCC1(C(=O)N[C@@H](CCO)C2=CC=C(C=C2)Cl)N)C3=NC=NC4=C3C=CN4 [AZD5363] (first compound max 10 µM, 7x7, partner max 10 µM)	0.296	0.284	0.263	0.432	0.644	0.432	0.816	0.275	0.659	0.447	0.343	0.258	0.251
C[C@@H]1COCCN1c1cc(C2([S@](C)(=N)=O)CC2)nc(-c2ccnc3[nH]ccc23)n1 [AZD6738] + C1CC(C1)(C(=O)[O-])C(=O)[O-].N.N.[Pt+2] [Carboplatin] (first compound max 10 µM, 7x7, partner max 10 µM)	0.895	0.386	0.926	0.329	0.576	0.211	0.97	0.455	0.857	0.703	0.51	0.547	0.344

Reference: the supplement of paper PMC11061612
